Measured values: ChEMBL document CHEMBL1146179, “Desosamine in multicomponent reactions” (Bioorg Med Chem Lett, 2006)
The source made the active and inactive calls.

Tests used:
Assay type in all cases: functional, organism-based
Staphylococcus aureus [1] = assay: Antibacterial activity against Staphylococcus aureus ATCC 6538 at 100 mM
Escherichia coli [2] = assay: Antibacterial activity against Escherichia coli at 100 mM
Candida albicans [3] = assay: Antifungal activity against Candida albicans ATCC 10231 at 100 mM
Staphylococcus aureus [4] = assay: Antibacterial activity against Staphylococcus aureus ATCC 6538 at 50 mM
Staphylococcus aureus [5] = assay: Antibacterial activity against Staphylococcus aureus ATCC 6538 at 400 mM
Candida albicans [6] = assay: Antifungal activity against Candida albicans ATCC 10231 at 50 mM
Escherichia coli [7] = assay: Antibacterial activity against Escherichia coli at 400 mM
Bacillus subtilis [8] = assay: Antibacterial activity against Bacillus subtilis at 400 mM
Candida albicans [9] = assay: Antifungal activity against Candida albicans ATCC 10231 at 400 mM
Bacillus subtilis [10] = assay: Antibacterial activity against Bacillus subtilis at 100 mM
Escherichia coli [11] = assay: Antibacterial activity against Escherichia coli at 50 mM
Bacillus subtilis [12] = assay: Antibacterial activity against Bacillus subtilis at 50 mM

Measured: Activity

C[C@@H]1C[C@H](N(C)C)[C@@H](O)C(NCc2nnnn2C(C)(C)C)O1 (some centres undefined)
inactive: Staphylococcus aureus [1] | Escherichia coli [2] | Candida albicans [3] | Staphylococcus aureus [4] | Staphylococcus aureus [5] | Candida albicans [6] | Escherichia coli [7] | Bacillus subtilis [8] | Candida albicans [9] | Bacillus subtilis [10] | Escherichia coli [11] | Bacillus subtilis [12]

COC(=O)Cn1nnnc1C(NC1O[C@H](C)C[C@H](N(C)C)[C@H]1O)c1ccccc1 (some centres undefined)
inactive: Staphylococcus aureus [1] | Escherichia coli [2] | Candida albicans [3] | Staphylococcus aureus [4] | Staphylococcus aureus [5] | Candida albicans [6] | Escherichia coli [7] | Bacillus subtilis [8] | Candida albicans [9] | Bacillus subtilis [10] | Escherichia coli [11] | Bacillus subtilis [12]
